Assay [1] concerns PC-12. The experiment in a line: Cytotoxicity in rat PC-12 cells assessed as cell viability measured at 10 to 30 uM for 24 hrs by MTT assay. It counts as functional, cell-based. The conditions noted are these: dose 10-30 µM. For orientation: Tetrazolium assays rely on reduction of a dye to a coloured formazan, in cell work by metabolically active cells.
For assay [2], the system named is PC-12. The experiment in a line: Cytotoxicity in rat PC-12 cells assessed as cell viability measured at 30 uM for 24 hrs by MTT assay. It counts as functional, cell-based.
The subject of assay [3] is PC-12. The experiment in a line: Neuroprotective activity against 6-OHDA-induced cytotoxicity in rat PC-12 cells at 10 to 30 uM for 4 hrs followed by exposure to 6-OHDA measured after 24 hrs by MTT assay. It counts as functional, cell-based. The conditions noted are these: dose 10-30 µM, time 28.0 hrs.
The subject of assay [4] is PC-12. The experiment in a line: Neuroprotective activity against 6-OHDA-induced cytotoxicity in rat PC-12 cells at 30 uM for 4 hrs followed by exposure to 6-OHDA measured after 24 hrs by MTT assay. It counts as functional, cell-based. The conditions noted are these: time 28.0 hrs.
Assay [5] has as its system PC-12. Description: Neuroprotective activity against 6-OHDA-induced cytotoxicity in rat PC-12 cells at 0.1 to 30 uM for 4 hrs followed by exposure to 6-OHDA measured after 24 hrs by MTT assay relative to control. In kind it is functional. The conditions noted are these: dose 0.1-30 µM, time 28 hrs.
Assay [6] has as its system PC-12. The experiment in a line: Cytotoxicity in rat PC-12 cells assessed as cell viability incubated at 0.1 to 30 uM for 24 hrs by MTT assay relative to control. It counts as functional. The conditions noted are these: dose 0.1-30 µM.
In assay [7] the test system is PC-12. Description: Neuroprotective activity against 6-OHDA-induced cytotoxicity in rat PC-12 cells for 4 hrs followed by exposure to 6-OHDA measured after 24 hrs by MTT assay. It counts as functional, cell-based. The conditions noted are these: dose 0.1-30 µM, time 28.0 hrs.

Activity calls are given as the source filed them. No cut-off for these calls is given here.

`CC1(C)Oc2c(c(O)cc3occ(-c4cccc(C#N)c4)c(=O)c23)CC1O` (configuration not stated): in assay [1], the result was Active.

For `COc1ccc(-c2coc3cc(O)c4c(c3c2=O)OC(C)(C)CC4)cc1`, the result in assay [1] was Active.

Consider `CCOc1ccc(-c2coc3cc4c(c(OCC)c3c2=O)C=CC(C)(C)O4)cc1`, for which, in assay [2], the result was Active.

For `CC1(C)Oc2c(c(O)cc3occ(-c4ccncc4)c(=O)c23)CC1O` (configuration not stated), the outcome in assay [2] was Active.

With `CC1(C)Oc2c(c(O)cc3occ(-c4ccc(OC(F)(F)F)cc4)c(=O)c23)CC1O` (configuration not stated), the result in assay [1] was Active.

On to `COc1ccc(-c2coc3cc(O)c4c(c3c2=O)OC(C)(C)C(O)C4)cc1OC` (configuration not stated), for which the outcome in assay [1] and in assay [3] was inactive.

As to `COc1ccc(-c2coc3cc(OC)c4c(c3c2=O)OC(C)(C)C(O)C4)cc1` (configuration not stated), the outcome in assay [1] and in assay [3] was inactive.

`CC1(C)Oc2c(c(O)cc3occ(-c4ccc(F)cc4)c(=O)c23)CC1O` (configuration not stated): the outcome in assay [1] was Active.

As for `CC1(C)Oc2c(c(O)cc3occ(-c4cccs4)c(=O)c23)CC1O` (configuration not stated), the result in assay [4] was inactive.

For the compound `CC1(C)Oc2c(c(O)cc3occ(-c4cccc(OC(F)(F)F)c4)c(=O)c23)CC1O` (configuration not stated), the outcome in assay [1] was Active.

As for `Cc1cc(C)cc(-c2coc3cc(O)c4c(c3c2=O)OC(C)(C)C(O)C4)c1` (configuration not stated), the result in assay [1] and in assay [4] was Active. For the same compound, the “inhibition (INH)” value in assay [5] came to 45.4%. In addition, the Activity in assay [6] was 73%; in assay [7] it was “Dose-Dependent Effect”.
